Measured values reported in US8048455B2, “Treatment of cancer and inflammatory disorder” (Academia Sinica, priority 2006, dated 2011).

Tests used:
[1] = tested on: NF-κB•DNA complex; assay: Electrophoretic mobility shift assay of NF-κB binding to consensus DNA in LPS-stimulated RAW 264.7 cells; format: cell-based, murine; settings: 100 μM, LPS 1 μg/mL, 90 min
Experimental: EMSA was performed with the […]™ Chemiluminescent EMSA kit (Pierce Biotechnology, Rockford, Ill.). […] The DNA-protein complexes were subjected to 5-10% gradient PAGE. Competition assay with unlabeled oligonucleotide (cold DNA) was performed in parallel. […]

[2] = tested on: NO; assay: Plasma nitrite concentration in SNP-treated mice; format: in vivo, Female ICR mice; settings: topical pretreatment 30 min before SNP; dLGG 10 mg/site, PTIO 3.5 mg/site
Experimental: Female ICR mice were topically treated on their shaven back area of a 2-cm diameter (3.14 cm^2/site/mouse) with vehicle control (acetone), SNP (positive control), or with dLGG or PTIO for 30 minutes before SNP application. Mouse plasma samples were subjected to determine the nitrite content followed a published method (Moshage et al. Clin Chem 1995; 41:892-6).
To examine the capability of dLGG to scavenge NO in vivo, the plasma NO concentration in SNP-insulted mice was determined with or without pretreatment with dLGG. Female ICR mice were transdermally treated with 200 μL acetone (vehicle control) or SNP (5.96 mg/site) only for 15 minutes, or pre-treated with dLGG (10 mg/site) or PTIO (3.5 mg/site) for 30 minutes before SNP treatment.

[3] = tested on: human COX-2 promoter; assay: COX-2 promoter-driven luciferase reporter assay in TPA-treated B16 melanoma cells; format: cell-based, murine; settings: reference control
Text: A double-mutated COX-2 promoter containing mutations on both NF-κB sites was also constructed (FIG. 2). PPGL-3-Basic vector was used as a negative control in luciferase assays. COX-2 reporter activity in arbitrary units (AU) was normalized to that for the Renilla luciferase reporter.
Murine melanoma B-16 cells co-transfected with the full-length pCOX-2-Luc and internal control plasmid pRL-TK-Luc plasmid constructs were stimulated without (control) or with TPA, in the absence or presence of the indicated concentrations of CREa8. An amount of 10 μg of total protein lysate was subjected to dual luciferase reporter assay. The induction fold of COX promoter activity by TPA treatment only is presented as 100%. The statistical analyses between […] and CREa8, aspirin, or indomethacin (Indo.) treatment were performed using Student's t-test.
B-16 cells were co-transfected with the full-length pCOX-2-Luc and internal control Renilla pRL-TK-Luc plasmid constructs with the LIPOFECTAMINE reagent (Invitrogen). The cells were then stimulated with vehicle (0.001% DMSO) or with 50 ng/mL TPA, in the absence or presence of dLGG for 6 hours. Ten μg of total protein lysate prepared with Passive Lysis Buffer (Promega) was subjected to dual luciferase reporter assay. The induction fold of COX-2 promoter activity by TPA treatment only is presented as 100%.
The contribution of specific cis-acting element binding sites on the transcription of COX-2 was examined. Data were obtained from 2 to 3 experiments with 3 to 6 replicates and expressed as mean±SD. Two-way ANOVA was used to analyze significance of differences.

[4] = tested on: B16 melanoma; assay: In vivo inhibition of B16 melanoma growth in C57BL/6J mice
Experimental: The chemopreventive effect of the CREa8 subfraction was evaluated on tumor growth using the B16 melanoma C57BL/6J mouse system. Six-week-old animals (4 groups of mice, 5 in each group) were used in this experiment. Group 1 mice (Sham control) were intraperitoneally (i.p.) injected with 20 μL of DMSO every 2 days throughout the experimental period, except 100 μL PBS was injected on day 0. Group 4 mice (Tumor control) were pre-treated with DMSO every 2 days, starting from day—14, for 2 weeks, inoculated with B16 tumor cells (1×10^6 cells/100 μL PBS) subcutaneously (s.c.) on the abdominal area on day 0, and then injected with DMSO every 2 days until day 21. Group 2 mice were i.p. pre-treated with CREa8 (10 mg/kg body weight per dose) every 2 days, starting from day—14, for 2 weeks, s.c. inoculated with B16 tumor cells on day 0, and then continuously treated with CREa8 (i.p.) every 2 days until day 21. Group 3 mice were similarly pre-treated with DMSO every 2 days for 2 weeks, inoculated with B16 tumor cells on day 0, and then treated with cisplatin (i.p.) every 2 days until day 21. The test mice were monitored daily, and body weights and tumor size (average of 2 dimensions) recorded every 2 days. At the end of the experiment (day 21), tumors were excised and weighed.
The cancer prevention efficacy of the dLGG-rich fraction (CREa8) was examined in vivo in 4 groups of mice according to the method described above. Cisplatin, a cancer chemotherapeutic, was used as a reference control.

Structure (SMILES): CC/C=C\C/C=C\C/C=C\CCCCCCCC(=O)OC[C@@H](O)CO[C@@H]1O[C@H](CO)[C@H](O)[C@H](O)[C@H]1O [1LGG, 1-O-α-linolenoyl-3-O-β-galactopyranosyl-sn-glycerol]
- Inhibition of NF-κB•DNA complex formation (structure-activity study) [1]: less effective than dLGG and dLG

Structure (SMILES): CC/C=C\C/C=C\C/C=C\CCCCCCCC(=O)O[C@H](CO)CO[C@@H]1O[C@H](CO)[C@H](O)[C@H](O)[C@H]1O [2LGG, 2-O-α-linolenoyl-3-O-β-galactopyranosyl-sn-glycerol]
- Inhibition of NF-κB•DNA complex formation (structure-activity study) [1]: less effective than dLGG and dLG

Structure (SMILES): CC1(C)N([O])C(c2ccccc2)=[N+]([O-])C1(C)C [PTIO, 2-phenyl-4,4,5,5-tetramethylimidazoline-1-oxyl-3-oxide, reference compound]
- SNP-induced increase of nitrite plasma concentration [2]: suppressed

Structure (SMILES): CCCCCCCCCCCCCCCCCC(=O)O [SA, stearic acid, reference compound]
- Inhibition of NF-κB•DNA complex formation (structure-activity study) [1]: little or no detectable effect

Structure (SMILES): CC(=O)Oc1ccccc1C(=O)O [aspirin, reference compound]
- Suppression of COX-2 promoter activity ([3]; 45 μg/mL): 19%

Structure (SMILES): N.N.[Cl][Pt][Cl] [cisplatin]
- Average tumor size ([4]; day 7, i.p. every 2 days, tumor control 0.73 cm): 0.29 cm
- Average tumor size, of the tumor control ([4]; day 17): 73%
- Tumor weight to body weight ratio ([4]; day 21, tumor control 31.3%): 25.2%
- Body weights versus other groups ([4]; throughout treatment): no significant differences

Structure (SMILES): CC/C=C\C/C=C\C/C=C\CCCCCCCC(=O)OC[C@H](CO)OC(=O)CCCCCCC/C=C\C/C=C\C/C=C\CC [dLG, 1,2-di-O-α-linolenoyl-sn-glycerol]
- Inhibition of NF-κB•DNA complex formation (structure-activity study) [1]: almost completely inhibited

Structure (SMILES): COc1ccc2c(c1)c(CC(=O)O)c(C)n2C(=O)c1ccc(Cl)cc1 [indomethacin, reference compound]
- Suppression of COX-2 promoter activity ([3]; 15 μg/mL): 28%
